Our source for the EC50 and Emax values is patent US11111251B2, “Positive allosteric modulators of the muscarinic acetylcholine receptor M1” (Vanderbilt University, priority 2016, dated 2021).

Read-outs that look alike come from different tables or passages of the source.

For this test, the target named is T1, human mAChR M1 (Homo sapiens, UniProt P11229).
T1 sequence (P11229 1-460): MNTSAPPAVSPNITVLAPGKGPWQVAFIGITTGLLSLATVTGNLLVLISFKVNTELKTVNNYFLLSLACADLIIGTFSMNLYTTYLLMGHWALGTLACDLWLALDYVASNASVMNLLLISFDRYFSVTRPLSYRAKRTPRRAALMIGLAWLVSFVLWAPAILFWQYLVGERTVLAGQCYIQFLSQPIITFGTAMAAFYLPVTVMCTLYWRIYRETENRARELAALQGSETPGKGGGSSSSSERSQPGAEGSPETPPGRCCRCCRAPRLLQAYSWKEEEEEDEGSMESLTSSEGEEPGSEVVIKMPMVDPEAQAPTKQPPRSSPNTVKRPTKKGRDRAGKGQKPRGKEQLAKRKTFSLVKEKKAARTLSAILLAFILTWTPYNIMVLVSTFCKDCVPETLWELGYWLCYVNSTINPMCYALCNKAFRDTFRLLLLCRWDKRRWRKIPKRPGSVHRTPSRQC
The experiment in a line: mAChR M1 cell-based functional assay: calcium mobilization, positive allosteric modulator mode (increase in EC20 acetylcholine response). The settings on record: for Emax: read-out: Human M1 Emax (%). An outline of the steps: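 PAM potency reflects the concentration-dependent increase in calcium response to an EC20 acetylcholine challenge, given 144 s into a 300 s read after compound addition at 4 s (EC80 follows at 230 s). Cells were hM1-expressing CHO-K1, loaded 50 min with Fluo-4 AM. Curves used 11 points at 1:3 dilutions and four-parameter logistic fitting.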
(In general: A change in cytosolic calcium serves as a functional read-out for many receptors and channels.)

Where [1] appears, read: Table 2, human M1, read-out: Human M1 EC50.
[2] abbreviates: Table 1, mAChR M1 cell-based functional assay, PAM mode, species not given, read-out: EC50.

As to `O=C(N[C@@H]1CC[C@H]1O)c1cc(Cc2c(F)cc(-c3cscn3)cc2F)c2sccc2n1` [Compound 274, 7-[(2,6-difluoro-4-thiazol-4-yl-phenyl)methyl]-N-[(1R,2R)-2-hydroxycyclobutyl]thieno[3,2-b]pyridine-5-carboxamide], the EC50 (commonly the midpoint of the concentration-response curve) under setting [1] is > 10 µM. Further, the Emax (usually the maximal effect, on the per cent scale that the assay sets) (Table 2, human M1) turned out to be 46.8%.
For `O=C(NCC1CCOCC1)c1cc(Cc2ccc(-n3cccn3)cc2)c2sccc2n1` [Compound 288, 7-[(4-pyrazol-1-ylphenyl)methyl]-N-(tetrahydropyran-4-ylmethyl)thieno[3,2-b]pyridine-5-carboxamide] the same measures were 0.0974 µM and 74.4%.
On to `CO[C@H]1CCCC[C@@H]1NC(=O)c1cc(Cc2ccc(C)nc2)c2sccc2n1` [Compound 48, N-[(1S,2S)-2-methoxycyclohexyl]-7-[(6-methyl-3-pyridyl)methyl]thieno[3,2-b]pyridine-5-carboxamide], for which the EC50 under setting [2] is 5.77 µM.
Take `CC(C)(C)N1CC(NC(=O)c2cc(Cc3ccc(-c4cscn4)cc3)c3sccc3n2)C1` [Compound 203, N-(1-tert-butylazetidin-3-yl)-7-[(4-thiazol-4-ylphenyl)methyl]thieno[3,2-b]pyridine-5-carboxamide]: the EC50 under setting [1] is 2.2 µM. Moreover, the Emax (Table 2, human M1) came to 75.3%.
For the compound `Cn1ncc2nc(C(=O)NC3CC4(COC4)C3)cc(Cc3ccc(-n4cccn4)cc3)c21` [Compound 500, 1-methyl-N-(2-oxaspiro[3.3]heptan-6-yl)-7-[(4-pyrazol-1-ylphenyl)methyl]pyrazolo-[4,3-b]pyridine-5-carboxamide], the EC50 under setting [1] is > 10 µM. Further, under “Table 2, human M1”, the Emax came out at 63.1%.
For `CO[C@@H]1CCCC[C@H]1NC(=O)c1cc(Cc2cnc(C)s2)c2sccc2n1` [Compound 139, N-[(1R,2R)-2-methoxycyclohexyl]-7-[(2-methylthiazol-5-yl)methyl]thieno[3,2-b]pyridine-5-carboxamide], the concentration for a half-maximal effect (EC50) under setting [1] is > 10 µM. The Emax (Table 2, human M1) was 51.1%.
For `O=C(NC1CCCC1=O)c1cc(Cc2ccc(-n3cccn3)cc2)c2sccc2n1` (centres unmarked) [Compound 437, N-(2-oxocyclopentyl)-7-[(4-pyrazol-1-ylphenyl)methyl]thieno[3,2-b]pyridine-5-carboxamide] the same measures were 0.201 µM and 70%.
The like results for `Cc1ncc(Cc2cc(C(=O)N[C@@H]3CCCCC[C@H]3O)nc3ccsc23)s1` [Compound 140, N-[(1R,2R)-2-hydroxycycloheptyl]-7-[(2-methylthiazol-5-yl)methyl]thieno[3,2-b]pyridine-5-carboxamide] were, in that order, 0.306 µM and 82.8%.
For `O=C(NC1CCCNC1=O)c1cc(Cc2ccc(-c3cscn3)cc2)c2sccc2n1` (centres unmarked) [Compound 221, N-(2-oxo-3-piperidyl)-7-[(4-thiazol-4-ylphenyl)methyl]thieno[3,2-b]pyridine-5-carboxamide] the same measures were 0.595 µM and 86.9%.
Regarding `CC1(C)CC(NC(=O)c2ccc(Cc3cc(C(=O)NC4CCOC(C)(C)C4)nc4ccsc34)cc2)CCO1` (centres unmarked) [Compound 409, N-(2,2-dimethyltetrahydropyran-4-yl)-7-[[4-[(2,2-dimethyltetrahydropyran-4-yl)carbamoyl]phenyl]methyl]thieno[3,2-b]pyridine-5-carboxamide], the EC50 under setting [1] turned out to be 0.725 µM. For the same compound, the Emax (Table 2, human M1) is 68.8%.
For `Cc1nn(C)cc1-c1ccc(Cc2cc(C(=O)NC3COC3)nc3ccsc23)cc1` [Compound 244, 7-[[4-(1,3-dimethylpyrazol-4-yl)phenyl]methyl]-N-(oxetan-3-yl)thieno[3,2-b]pyridine-5-carboxamide] the same measures were 0.187 µM and 15%.
Regarding `Cc1ccc(Cc2cc(C(=O)NC3CCOCC3)nc3ccsc23)cn1` [Compound 50, 7-[(6-methyl-3-pyridyl)methyl]-N-tetrahydropyran-4-yl-thieno[3,2-b]pyridine-5-carboxamide], under setting [2], the EC50 worked out at 4.96 µM.
In the case of `Cc1ncc(Cc2cc(C(=O)N[C@@H]3CCCC[C@H]3O)nc3ccsc23)cn1` [Compound 127, N-[(1R,2R)-2-hydroxycyclohexyl]-7-[(2-methylpyrimidin-5-yl)methyl]thieno[3,2-b]pyridine-5-carboxamide], under setting [1], the EC50 was > 10 µM. Also, the Emax (Table 2, human M1) came out at 79.2%.
For `Cn1cc(-c2ccc(Cc3cc(C(=O)NC4CC(F)C4)nc4ccsc34)cn2)cn1` (centres unmarked) [Compound 346, N-(3-fluorocyclobutyl)-7-[[6-(1-methylpyrazol-4-yl)-3-pyridyl]methyl]thieno[3,2-b]pyridine-5-carboxamide] the same measures were 0.266 µM and 89.4%.
With `Cn1cc(-c2ccc(Cc3cc(C(=O)NCC4CCOC4)nc4ccsc34)cn2)cn1` (centres unmarked) [Compound 348, 7-[[6-(1-methylpyrazol-4-yl)-3-pyridyl]methyl]-N-(tetrahydrofuran-3-ylmethyl)thieno[3,2-b]pyridine-5-carboxamide], the 50% effective concentration (EC50) under setting [1] was determined as 0.128 µM. Moreover, the Emax (Table 2, human M1) is 85.6%.
The like results for `Cn1ccc(-c2ccc(Cc3cc(C(=O)N[C@H]4CCOC4)nc4ccsc34)cn2)n1` [Compound 417, 7-[[6-(1-methylpyrazol-3-yl)-3-pyridyl]methyl]-N-[(3S)-tetrahydrofuran-3-yl]thieno[3,2-b]pyridine-5-carboxamide] were, in that order, 4.65 µM and 66.6%.
For `COCCCNC(=O)c1cc(Cc2ccc(-n3cccn3)cc2)c2sccc2n1` [Compound 430, N-(3-methoxypropyl)-7-[(4-pyrazol-1-ylphenyl)methyl]thieno[3,2-b]pyridine-5-carboxamide] the same measures were 1.08 µM and 72.9%.
The like results for `Cn1ccc(-c2ccc(Cc3cc(C(=O)NC4CC5(COC5)C4)nc4ccsc34)cc2)n1` [Compound 252, 7-[[4-(1-methylpyrazol-3-yl)phenyl]methyl]-N-(2-oxaspiro[3.3]heptan-6-yl)thieno[3,2-b]pyridine-5-carboxamide] were, in that order, 0.258 µM and 78.4%.
For `CO[C@@H]1CCCC[C@H]1NC(=O)c1cc(Cc2ccc(-n3cccn3)cc2)c2sccc2n1` [Compound 76, N-[(1R,2R)-2-methoxycyclohexyl]-7-[(4-pyrazol-1-ylphenyl)methyl]thieno[3,2-b]pyridine-5-carboxamide], the EC50 under setting [1] was found to be 0.739 µM. The Emax (Table 2, human M1) worked out at 67.6%.
The like results for `O=C(NC1CN(CC(F)(F)F)C1)c1cc(Cc2ccc(-n3cccn3)cc2)c2sccc2n1` [Compound 432] were, in that order, 3.42 µM and 47.5%.
As for `Cc1ccc(Cc2cc(C(=O)N[C@H]3COCC[C@@H]3O)nc3ccsc23)cn1` [Compound 46, N-[(3S,4S)-4-hydroxytetrahydropyran-3-yl]-7-[(6-methyl-3-pyridyl)methyl]thieno[3,2-b]pyridine-5-carboxamide], the EC50 under setting [2] was 0.029 µM.
With `Cc1ncc(Cc2cc(C(=O)N[C@@H]3CCC[C@H]3O)nc3ccsc23)s1` [Compound 133, N-[(1R,2R)-2-hydroxycyclopentyl]-7-[(2-methylthiazol-5-yl)methyl]thieno[3,2-b]pyridine-5-carboxamide], under setting [1], the EC50 amounted to 3.62 µM. The Emax (Table 2, human M1) was determined as 77.9%.
The like results for `Cn1cc(-c2ccc(Cc3cc(C(=O)N[C@H]4CCC[C@@H]4O)nc4ccsc34)c(F)c2)cn1` [Compound 56, 7-[[2-fluoro-4-(1-methylpyrazol-4-yl)phenyl]methyl]-N-[(1S,2S)-2-hydroxycyclopentyl]thieno[3,2-b]pyridine-5-carboxamide] were, in that order, 3.26 µM and 51%.
For `Cn1cc(-c2ccc(Cc3cc(C(=O)NC[C@@H]4CCCO4)nc4ccsc34)cn2)cn1` [Compound 349, 7-[[6-(1-methylpyrazol-4-yl)-3-pyridyl]methyl]-N-[[(2S)-tetrahydrofuran-2-yl]methyl]thieno[3,2-b]pyridine-5-carboxamide] the same measures were 0.0254 µM and 89.8%.
As to `Cc1ccc(Cc2cc(C(=O)NC3CCCCNC3=O)nc3ccsc23)cn1` (centres unmarked) [Compound 67, 7-[(6-methyl-3-pyridyl)methyl]-N-(2-oxoazepan-3-yl)thieno[3,2-b]pyridine-5-carboxamide], the EC50 under setting [1] turned out to be 2.78 µM. The Emax (Table 2, human M1) amounted to 92.7%.
For `O=C(c1cc(Cc2ccc(-n3cccn3)cc2)c2sccc2n1)N1CCNCC1` [Compound 83, piperazin-1-yl-[7-[(4-pyrazol-1-ylphenyl)methyl]thieno[3,2-b]pyridin-5-yl]methanone] the same measures were > 10 µM and 52.9%.
Turning to `Cn1ccc2nc(C(=O)NCC3CCOCC3)cc(Cc3ccc(-c4cscn4)cc3)c21` [Compound 466, 1-methyl-N-(tetrahydropyran-4-ylmethyl)-7-[(4-thiazol-4-ylphenyl)methyl]pyrrolo[3,2-b]pyridine-5-carboxamide], the EC50 under setting [1] is 0.364 µM. Moreover, for the setting “Table 2, human M1”, the Emax was determined as 72.2%.
The like results for `Cc1nc(-c2ccc(Cc3cc(C(=O)N[C@@H]4CC[C@H]4O)nc4ccsc34)cc2)cs1` [Compound 176, N-[(1R,2R)-2-hydroxycyclobutyl]-7-[[4-(2-methylthiazol-4-yl)phenyl]methyl]thieno[3,2-b]pyridine-5-carboxamide] were, in that order, 0.362 µM and 93.2%.
